Values quoted from earlier work in patent publication US9850267B2, “Crystalline fosaprepitant dicyclohexylamine salt and its preparation” (Navinta, LLC, priority 2015, dated 2017).

Conditions: white to off-white amorphous powder

Structure (SMILES): C[C@@H](O[C@H]1OCCN(Cc2nc(O)n(P(=O)(O)O)n2)[C@H]1c1ccc(F)cc1)c1cc(C(F)(F)F)cc(C(F)(F)F)c1 [Fosaprepitant dimeglumine, fosaprepitant dimeglumine]
- solubility in water: freely soluble in water
